Measurements as given in patent publication US20060292076A1, “Antimicrobial mediated ozone generation” (priority 2002, published 2006).
Entries after “also recorded” stand apart in the source; their conditions may differ.

Columns and labels:
[1] = H2O2 formation with hematoporphyrin IX sensitization and visible light (sensitization and quenching assays); assay type: biochemical; details: D2O or NaN3 (40 mM)
Method: Sensitization and Quenching Assays. A solution of 31127 (100 μl of horse IgG, 6.7 μM) in PBS (pH 7.4, 4% dimethylformamide) and hematoporphyrin IX (40 μM) was placed in proximity to a strip light. Hydrogen peroxide concentration was determined as described herein. […]
Assay for H2O2 production as a function of the efficiency of ^1O2 formation via ^3O2 sensitization with hematoporphyrin IX: The assay is a modification of a procedure developed by H. Sakai and co-workers, Proc. SPE-Int. Soc. Opt. Eng., 2371, 264 (1995). In brief, the horse poly-IgG (1 mg/mL) in PBS (50 mM, pH 7.4) and hematoporphyrin IX (40 μM) is irradiated with white light from a transilluminator. Aliquots are removed (50 μL) and the concentration of H2O2 and 3-aminophthalic acid measured simultaneously. H2O2 concentration was measured by the amplex red assay (Zhou et al., Anal. Biochem., 253, 162 (1997)). 3-Aminophthalic acid concentration was measured by reversed-phase HPLC on a Hitachi D4000 series machine with an Adsorbosphere-C18 column, a UV detector at 254 nm, and a mobile phase of acetonitrile/water (0.1% TFA) of 18:82 at 1 mL/min (retention time of luminol=7.4 min and 3-aminophthalic acid 3.5 min). The concentrations of luminol and 3-aminophthalic acid were determined by comparison of peak height and area to control samples. […]

[2] = tested on: E. coli; experiment: Bactericidal assay, E. coli (strain not singled out or both serotypes); assay type: cell-based
Method: In a typical experiment, a culture of E. coli (in log phase growth, OD600=0.2-0.3) was repeatedly pelleted (3×3,500 rpm) and resuspended in PBS (pH 7.4). The PBS suspended cells were then added to glass vials and cooled to 4° C. Hematoporphyrin IX (40 μM) and antibody (20 μM) were added and the vials were either placed on a light box (visible light, 2.8 mW cm^−2) or in the dark at 4° C. and incubated for 1 h. Viability was determined by recovery of colony forming units (CFUs) on agar plates. Each experiment was performed at least in duplicate.
In a typical experiment, a culture of E. coli (in log phase growth, OD600=0.2-0.3) was repeatedly washed in PBS by pelleting (3×3,500 rpm) the cells and resuspending them in PBS (pH 7.4). The PBS suspended cells were then added to glass vials and cooled to 4° C. Hematoporphyrin IX (40 μM) and antibody (20 μM) were added and the vials were either placed on a light box (visible light, 2.8 mW cm^−2) or in the dark at 4° C. and incubated for 1 h. Viability was determined by recovery of colony forming units (CFUs) on agar plates. Each experiment was performed at least in duplicate.

[3] = Production of hydrogen peroxide by immunoglobulins and proteins under UV irradiation (Amplex Red assay); assay type: biochemical; details: for ability of non-immunoglobulin proteins to reduce ^1O2 / generate H2O2: irradiation in PBS
Method: All assays were carried out in PBS (10 mM phosphate/160 mM sodium chloride, pH 7.4). Commercial protein solution samples were dialyzed into PBS as necessary. Amplex Red hydrogen peroxide assay kits (A-12212) were obtained from Molecular Probes.
Antibody/Protein Irradiation. Unless otherwise stated, the assay solution (100 μl, 6.7 μM protein in PBS, pH 7.4) was added to a glass vial, sealed with a screw-cap, and irradiated with either UV (312 nm, […] Fischer-Biotech transilluminator) or visible light.
Quantitative Assay for Hydrogen Peroxide. An aliquot (20 μl) from the protein solution was removed and added into a well of a 96-well microtiter plate (Costar) containing reaction buffer (80 μL). Working solution (100 μl/400 μM Amplex Red reagent ½ units/ml horseradish peroxidase) was then added, and the plate was incubated in the dark for 30 min. The fluorescence of the well components was then measured using a CytoFluor Multi well Plate Reader (Series 4000, PerSeptive Biosystems, Framingham, Mass.; Ex/Em: 530/580 nm). The hydrogen peroxide concentration was determined using a standard curve. All experiments were run in duplicate, and the rate is quoted as the mean of at least two measurements.

[4] = Consumption of hydrogen peroxide by catalase (peroxide stick test); assay type: biochemical; details: 1 min after addition of catalase
Method: Consumption of Hydroen Peroxide by Catalase. A solution of EP2-19G12 (100 μl of mouse IgG, 20 μM in PBS, pH 7.4) was irradiated with UV light for 30 min, after which time the concentration of hydrogen peroxide was determined by stick test (EM Quant Peroxide Test Sticks) to be 2 mg/liter.

[2H]O[2H] [Clone D2O, D2O]
rate of formation of H2O2 by horse IgG with HP (40 μM) in visible light in the presence of additive [1]: increased

O=C(O)CN(CCN(CC(=O)O)CC(=O)O)CC(=O)O [EDTA]
effect of presence of EDTA on the survival of bacteria ([2]; 2 mM): no effect

[N-]=[N+]=[N-].[Na+] [NaN3]
rate of formation of H2O2 by horse IgG with HP (40 μM) in visible light in the presence of additive [1]: reduced

N[C@@H](Cc1c[nH]c2ccccc12)C(=O)O [Trp, tryptophan]
H2O2 production during near-UV irradiation ([3]; tryptophan 20 μM, FIG. 11A): ca. 0.5 mole equivalents

CC1=C(CCC(=O)O)c2cc3[nH]c(cc4nc(cc5[nH]c(cc1n2)c(C)c5C(C)O)C(C)=C4C(C)O)c(C)c3CCC(=O)O (stereo not shown) [hematoporphyrin IX]
bactericidal activity ([2]; HPIX 40 μM, white light 1 h, 4 °C): negligible bactericidal activity

chick ovalbumin: chick-egg ovalbumin
ability of non-immunoglobulin proteins to reduce ^1O2 / generate H2O2 [3]: one of the most efficient proteins at reducing

superoxide dismutase: enzyme, Sigma
ability of non-immunoglobulin proteins to reduce ^1O2 / generate H2O2 [3]: the same as irradiation of PBS alone; also recorded: do not reduce; also recorded: does not reside

β-galactosidase: non-immunoglobulin protein, Sigma
H2O2 generated by photo-production ([3]; from its 39 Trp residues, FIG. 8A): 5.9 mol eq.

B1: catalase: enzyme that converts H2O2 to water and molecular oxygen (protein, UniProt P00432 2-527, looked up)
Catalase: ADNRDPASDQMKHWKEQRAAQKPDVLTTGGGNPVGDKLNSLTVGPRGPLLVQDVVFTDEMAHFDRERIPERVVHAKGAGAFGYFEVTHDITRYSKAKVFEHIGKRTPIAVRFSTVAGESGSADTVRDPRGFAVKFYTEDGNWDLVGNNTPIFFIRDALLFPSFIHSQKRNPQTHLKDPDMVWDFWSLRPESLHQVSFLFSDRGIPDGHRHMNGYGSHTFKLVNANGEAVYCKFHYKTDQGIKNLSVEDAARLAHEDPDYGLRDLFNAIATGNYPSWTLYIQVMTFSEAEIFPFNPFDLTKVWPHGDYPLIPVGKLVLNRNPVNYFAEVEQLAFDPSNMPPGIEPSPDKMLQGRLFAYPDTHRHRLGPNYLQIPVNCPYRARVANYQRDGPMCMMDNQGGAPNYYPNSFSAPEHQPSALEHRTHFSGDVQRFNSANDDNVTQVRTFYLKVLNEEQRKRLCENIAGHLKDAQLFIQKKAVKNFSDVHPEYGSRIQALLDKYNEEKPKNAVHTYVQHGSHLSAREKANL
extent of protection against antigen-specific antibodies ([2]; catalase 13 mU/mL): varied over a wide range | protection against the bactericidal activity of non-specific antibodies ([2]; catalase 13 mU/mL): complete protection; also recorded: completely attenuated | concentration of H2O2 after catalase [4]: 0 mg/L

B2: RNase A: non-immunoglobulin protein, Amersham Pharmacia (protein, UniProt P61823 27-150, looked up)
Ribonuclease pancreatic: KETAAAKFERQHMDSSTSAASSSNYCNQMMKSRNLTKDRCKPVNTFVHESLADVQAVCSQKNVACKNGQTNCYQSYSTMSITDCRETGSSKYPNCAYKTTQANKHIIVACEGNPYVPVHFDASV
ability of non-immunoglobulin proteins to reduce ^1O2 / generate H2O2 [3]: do not reduce | ability of non-immunoglobulin proteins to reduce ^1O2 / generate H2O2 ([3]; listed as RNaseA): does not reside
